Where a name gives a salt, the structure may show the parent alone.
How the values were obtained:
human V1a receptor = target: T1, human V1a receptor (Homo sapiens, UniProt P37288); test: Cellular in vitro assay for vasopressin receptor activity, V1a receptor cell line (aequorin luminescence); type: cell-based; conditions: for IC50: CHO cell line transfected with human V1a receptor, [Arg8]-vasopressin at EC50 concentration, read-out: IC50 hV1a; for ratio IC50 hV2/hV1a: selectivity ratio of the IC50 values hV2/hV1a
T1 construct: expressed in transfected cells; host or cells: CHO K1 (Chinese hamster ovary), also stably transfected with a modified aequorin
How it was run: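 Recombinant CHO K1 cells stably expressing human V1a receptor and aequorin, loaded with coelenterazine, were exposed to test compounds for 10 minutes before [Arg^8]-vasopressin at EC50 concentration. Calcium-triggered luminescence was measured immediately, giving IC50 values.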

human V2 receptor = target: T2, human V2 receptor (Homo sapiens, UniProt P30518); test: Cellular in vitro assay for vasopressin receptor activity, V2 receptor cell line (CRE-luciferase); type: cell-based; conditions: CHO cell line transfected with human V2 receptor; [Arg8]-vasopressin at EC50 concentration; read-out: IC50 hV2
T2 construct: expressed in transfected cells; host or cells: CHO K1 (Chinese hamster ovary) expressing firefly luciferase under a CRE-responsive promoter
How it was run: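 CHO K1 cells stably expressing human V2 receptor with CRE-driven firefly luciferase, plated the day before. Test compounds at various concentrations added together with [Arg^8]-vasopressin at EC50 concentration, 3 h at 37° C, 5% CO2. Luminescence read after Triton lysis and luciferin addition; IC50 values reported.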

T2 sequence (P30518 whole entry): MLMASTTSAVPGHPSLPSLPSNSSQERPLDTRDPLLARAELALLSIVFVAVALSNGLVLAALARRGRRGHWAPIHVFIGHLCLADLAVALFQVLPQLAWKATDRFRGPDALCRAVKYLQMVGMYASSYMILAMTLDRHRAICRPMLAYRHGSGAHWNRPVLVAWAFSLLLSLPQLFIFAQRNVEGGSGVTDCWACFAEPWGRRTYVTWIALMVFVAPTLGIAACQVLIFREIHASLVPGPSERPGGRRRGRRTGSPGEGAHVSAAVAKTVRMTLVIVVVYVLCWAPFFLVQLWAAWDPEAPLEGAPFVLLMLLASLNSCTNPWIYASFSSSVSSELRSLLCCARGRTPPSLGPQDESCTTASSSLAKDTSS
T1 sequence (P37288 whole entry): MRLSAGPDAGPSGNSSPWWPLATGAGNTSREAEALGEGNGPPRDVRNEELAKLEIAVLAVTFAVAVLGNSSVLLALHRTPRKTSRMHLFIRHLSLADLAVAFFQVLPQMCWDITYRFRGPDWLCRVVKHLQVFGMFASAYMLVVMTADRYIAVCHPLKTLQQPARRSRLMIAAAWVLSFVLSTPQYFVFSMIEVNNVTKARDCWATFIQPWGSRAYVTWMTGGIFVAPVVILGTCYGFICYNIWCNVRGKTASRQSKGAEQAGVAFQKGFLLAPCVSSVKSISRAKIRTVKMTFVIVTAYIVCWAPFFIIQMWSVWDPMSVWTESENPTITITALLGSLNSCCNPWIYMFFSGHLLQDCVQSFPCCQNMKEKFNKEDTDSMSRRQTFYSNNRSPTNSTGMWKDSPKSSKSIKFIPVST

IC50 (human V1a receptor) [nM]	ratio IC50 hV2/hV1a (human V1a receptor)	IC50 (human V2 receptor) [nM]	SMILES
0.64	5.7	3.66	CON(C)C(=O)c1nc(Cn2nc(-c3ccc(Cl)cc3)n(C[C@H](O)C(F)(F)F)c2=O)nn1-c1cccc(Cl)c1 [Example 45, 1-(3-Chlorophenyl)-3-({3-(4-chlorophenyl)-5-oxo-4-[(2S)-3,3,3-trifluoro-2-hydroxypropyl]-4,5-dihydro-1H-1,2,4-triazol-1-yl}methyl)-N-methoxy-N-methyl-1H-1,2,4-triazole-5-carboxamide]
288	5.1	1470	CC(C)(N)CNC(=O)c1nc(Cn2nc(-c3ccc(Cl)cc3)n(C[C@H](O)C(F)(F)F)c2=O)nn1-c1ncccc1C(F)(F)F [Example 46, N-(2-Amino-2-methylpropyl)-3-({3-(4-chlorophenyl)-5-oxo-4-[(2S)-3,3,3-trifluoro-2-hydroxypropyl]-4,5-dihydro-1H-1,2,4-triazol-1-yl}methyl)-1-[3-(trifluoromethyl)pyridin-2-yl]-1H1,2,4-triazole-5-carboxamide]
0.92	41.8	38.5	O=C(NCC(F)(F)F)c1nc(Cn2nc(-c3ccc(Cl)cc3)n(C[C@H](O)C(F)(F)F)c2=O)nn1-c1ncccc1C(F)(F)F [Example 47, 3-({3-(4-Chlorophenyl)-5-oxo-4-[(2S)-3,3,3-trifluoro-2-hydroxypropyl]-4,5-dihydro-1H-1,2,4-triazol-1-yl}methyl)-N-(2,2,2-trifluoroethyl)-1-[3-(trifluoromethyl)pyridin-2-yl]-1H-1,2,4-triazole-5-carboxamide]
1.31	31.3	41	CC(C)(C)NC(=O)c1nc(Cn2nc(-c3ccc(Cl)cc3)n(C[C@H](O)C(F)(F)F)c2=O)nn1-c1ncccc1C(F)(F)F [Example 48, N-Tert-butyl-3-({3-(4-chlorophenyl)-5-oxo-4-[(2S)-3,3,3-trifluoro-2-hydroxypropyl]-4,5-dihydro-1H-1,2,4-triazol-1-yl}methyl)-1-[3-(trifluoromethyl)pyridin-2-yl]-1H-1,2,4-triazole-5-carboxamide]
2.5	191.0	478	CC1(C)CN(C(=O)c2nc(Cn3nc(-c4ccc(Cl)cc4)n(C[C@H](O)C(F)(F)F)c3=O)nn2-c2ncccc2C(F)(F)F)CCN1 [Example 49, 5-(4-Chlorophenyl)-2-({5-(3,3-dimethylpiperazine-1-carbonyl)-1-[3-(trifluoromethyl)pyridin-2-yl]-1H-1,2,4-triazol-3-yl}methyl)-4-[(2S)-3,3,3-trifluoro-2-hydroxypropyl]-2,4-dihydro-3H-1,2,4-triazol-3-one hydrochloride]
0.7	100.0	70	CC(C)(C)CNC(=O)c1nc(Cn2nc(-c3ccc(Cl)cc3)n(C[C@H](O)C(F)(F)F)c2=O)nn1-c1ncccc1C(F)(F)F [Example 50, 3-({3-(4-Chlorophenyl)-5-oxo-4-[(2S)-3,3,3-trifluoro-2-hydroxypropyl]-4,5-dihydro-1H-1,2,4-triazol-1-yl}methyl)-N-(2,2-dimethylpropyl)-1-[3-(trifluoromethyl)pyridin-2-yl]-1H-1,2,4-triazole-5-carboxamide]
0.47	82.8	38.5	CC(C)(O)CNC(=O)c1nc(Cn2nc(-c3ccc(Cl)cc3)n(C[C@H](O)C(F)(F)F)c2=O)nn1-c1ncccc1C(F)(F)F [Example 52, 3-({3-(4-Chlorophenyl)-5-oxo-4-[(2S)-3,3,3-trifluoro-2-hydroxypropyl]-4,5-dihydro-1H-1,2,4-triazol-1-yl}methyl)-N-(2-hydroxy-2-methylpropyl)-1-[3-(trifluoromethyl)pyridin-2-yl]-1H-1,2,4-triazole-5-carboxamide]

Source: patent publication US11230540B2, “Substituted triazole derivatives and uses thereof” (Bayer Pharma Aktiengesellschaft, priority 2017, dated 2022)
